21 compounds from patent US20240360114A1 (SIRONAX LTD., priority 2021, published 2024) can be followed below.

In general, EC50 refers to the concentration needed to bring the measured effect to its halfway point. Lower therefore signals higher potency in that assay.

In one assay the test system is HT-1080 cells. Description: HT-1080 cell viability assay (ferroptosis induced by RSL3, Cell Titer-Glo). As to conditions: Homo sapiens, HT-1080, 20 h, ferroptosis inducer RSL3, 20 hours, ferroptosis inhibitory activity, Table 2. It counts as cell-based. A digest of the protocol: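 EC50 fitted by sigmoidal dose-response regression on luminescent viability data normalized to untreated cells. Compounds ran as a 10-point, 3-fold series from 1.1 μM alongside RSL3 for 20 hours, after overnight seeding.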
For orientation: ATP-based viability assays read luminescence as a measure of living cells.
In the case of `CC1CN(c2ccc(NC3CCC(N)CC3)cc2F)CC(C)O1` (stereo not drawn) [Compound 456, N1-(4-(2,6-dimethylmorpholino)-3-fluorophenyl)cyclohexane-1,4-diamine], the EC50 lay within 100 to 1000 nM.
On the same count and under the same terms, the value for `CC(C)C1CCN(c2ncc(NC[C@H]3C[C@H](N)C3)cn2)CC1` [Compound 448, N-(((1r,3r)-3-aminocyclobutyl)methyl)-2-(4-isopropylpiperidin-1-yl)pyrimidin-5-amine] was 0.1 to 100 nM; that for `CN1CC(C)(C)c2ccc(NC3CCC(N)CC3)cc21` (stereo not drawn) [Compound 343, N1-(1,3,3-trimethylindolin-6-yl)cyclohexane-1,4-diamine] was 0.1 to 100 nM; that for `CC1(C)CCC(c2ccc(NC(C)(C)CN3CCCC3)cc2)CC1` [Compound 203, 4-(4,4-dimethylcyclohexyl)-N-(2-methyl-1-(pyrrolidin-1-yl)propan-2-yl)aniline] was 100 to 1000 nM.
The compound `O=C1CC(C(=O)NC2CCC(Nc3ccc(C4CCCCC4)cc3)CC2)CN1` (stereo not drawn) [Compound 110, N-(4-((4-cyclohexylphenyl)amino)cyclohexyl)-5-oxopyrrolidine-3-carboxamide] displayed an EC50 of 100 to 1000 nM.
The same measure, in the same setting: the value for `CC1(C)CCC(c2ccc(NC3CCS(=O)(=O)CC3)cc2)CC1` [Compound 261, 4-((4-(4,4-dimethylcyclohexyl)phenyl)amino)tetrahydro-2H-thiopyran 1,1-dioxide] was 100 to 1000 nM; that for `Cc1cc(N2CCC(C(F)(F)F)CC2)c(F)cc1NC1CCC(N)CC1` (stereo not drawn) [Compound 58, N1-(5-fluoro-2-methyl-4-(4-(trifluoromethyl)piperidin-1-yl)phenyl)cyclohexane-1,4-diamine] was 0.1 to 100 nM.
As for `CC1(C)CCC(c2ccc(NC3CCNC(=O)C3)cc2)CC1` (stereo not drawn) [Compound 102, 4-((4-(4,4-dimethylcyclohexyl)phenyl)amino)piperidin-2-one], the EC50 lay within 0.1 to 100 nM.
`CC(C)(C)c1ccc(NC2CCC(CNC(=O)[C@H]3CNC(=O)N3)CC2)cc1` (single isomer, unassigned) [Compound 143A] returned an EC50 of 100 to 1000 nM.
As for `O=C1CC(C(=O)NC2CC3(C2)CC(Nc2ccc(N4CCC(C(F)(F)F)CC4)cc2)C3)CN1` (stereo not drawn) [Compound 375], the EC50 was 0.1 to 100 nM.
The same measure, in the same setting: the value for `CC1CN(c2ccc(NC3CC4(CC(N)C4)C3)cc2F)CC(C)O1` (stereo not drawn) [Compound 457, N2-(4-(2,6-dimethylmorpholino)-3-fluorophenyl)spiro[3.3]heptane-2,6-diamine] was 100 to 1000 nM.
On the same count and under the same terms, for `CCCOc1ccc(NC2CCC(N)CC2)cc1` (stereo not drawn) [Compound 174, N1-(4-propoxyphenyl)cyclohexane-1,4-diamine] the value was 0.1 to 100 nM; for `CCCc1ccc(NC2CCC(CN)CC2)cc1` (stereo not drawn) [Compound 291, N-(4-(aminomethyl)cyclohexyl)-4-propylaniline], 0.1 to 100 nM; for `NC1CC2(C1)CC(Nc1ccc(N3CCC(C(F)(F)F)CC3)cc1)C2` (stereo not drawn) [Compound 357, N2-(4-(4-(trifluoromethyl)piperidin-1-yl)phenyl)spiro[3.3]heptane-2,6-diamine], 0.1 to 100 nM.
On the same count and under the same terms, the value for `CC[C@@H]1CN(c2ccc(NC[C@H]3CC[C@H](N)CC3)c(C)n2)C[C@H](CC)O1` [Compound 500, N-(((1r,4R)-4-aminocyclohexyl)methyl)-6-((2R,6S)-2,6-diethylmorpholino)-2-methylpyridin-3-amine] was 0.1 to 100 nM; that for `CC1CN(c2ccc(NC3C[C@H]4CC(N)C[C@H]4C3)cc2F)CC(C)O1` (stereo partly drawn) [Compound 460, (3aR, 6aS)-N2-(4-(2,6-dimethylmorpholino)-3-fluorophenyl) octahydropentalene-2,5-diamine] was 0.1 to 100 nM; that for `Cc1nc(N2CC(C)OC(C)C2)c(F)cc1NC1C2CC3CC1CC(N)(C3)C2` (stereo not drawn) [Compound 519, N4-(6-(2,6-dimethylmorpholino)-5-fluoro-2-methylpyridin-3-yl)adamantane-1,4-diamine] was 0.1 to 100 nM.

Staying with this assay, now noted: Homo sapiens, HT-1080, 20 h, ferroptosis inducer RSL3, 20 hours, ferroptosis inhibitory activity, Table 3.
With `Cc1nc(N2CCN(CC(F)(F)F)C(C)C2)ccc1NC1CC2(CC(NC(N)=O)C2)C1` (stereo not drawn) [Compound 603], the EC50 fell in the range of 0.1 to 100 nM.
On the same count and under the same terms, the value for `CC(=O)N1CCN(CCNc2ccc(N3CC(C)OC(C)C3)nc2C)CC1` (stereo not drawn) [Compound 607, 1-(4-(2-((6-(2,6-dimethylmorpholino)-2-methylpyridin-3-yl)amino)ethyl)piperazin-1-yl)ethan-1-one] was 100 to 1000 nM; that for `Cc1nc(N2C[C@@H](C)O[C@@H](C)C2)ccc1NCC12C3C4C1C1C2C3C41CN` (stereo partly drawn) [Compound 621, N-((4-(aminomethyl)cuban-1-yl)methyl)-6-((2S,6R)-2,6-dimethylmorpholino)-2-methylpyridin-3-amine] was 0.1 to 100 nM.

Staying with this assay, now noted: Homo sapiens, ferroptosis inducer RSL3, 20 hours, ferroptosis inhibitory activity, Table 2.
`CC1(C)CCC(c2ccc(NC3CCC(C(C)(C)N)CC3)cc2)CC1` (stereo not drawn) [Compound 226, N-(4-(2-aminopropan-2-yl)cyclohexyl)-4-(4,4-dimethylcyclohexyl)aniline] registered an EC50 of 0.1 to 100 nM.
